# From patent US10676442B2, “Salt derivative of tetrahydroisoquinoline and crystalline thereof and preparation method therefore and application thereof” (CHINA STATE INSTITUTE OF PHARMACEUTICAL INDUSTRY, priority 2016, dated 2020)
# “And” between values parts separate entries of the source, which are not always exact repeats. Equal values may be shown once. “Also recorded” adds a separate entry of the source. Where a name gives a salt, the structure may show the parent alone. Read-outs that look alike come from different tables or passages of the source.
# Columns and labels:
# [1] = Measurement of solubility in water by liquid chromatography; assay type: physicochemical; settings: for Solubility in water / solubility at 12 h: saturated solution shaken 12 hrs at 30° C., HPLC, in water; for Solubility in water compared to SIPI-409 and SIPI-409 hydrochloride: in words; for solubility at 12 h: thermodynamic from solid
# Experimental: Solubility of SIPI-409 and of the salt derivatives thereof in water was measured by liquid chromatography.
# Main steps: preparing SIPI-409 standards at the concentrations of 5 ? g/mL, 10 ? g/mL, 50 ? g/mL, 100 ? g/mL, 200 ? g/mL and establishing the standard curve of these preparations.
# Chromatography Conditions:
# Chromatography column: Phenomenex Luna 5u C18(2) 100 A 4.6×200 mm
# Detection wave-length: 210 nm
# Mobile phase: acetonitrile/phosphate buffer (0.68 g/L monopotassium phosphate, pH was adjusted to 3.0 using triethylamine)=68/32
# Column temperature: 30° C.
# Load volume: 10 ? L
# Residence time: around 6.3 min
# Sample treatment: the test samples were prepared into saturated solutions in water (suspensions) and shaken for 12 hrs at 30° C., which were further ultrasonicated for 30 s, followed by filtration and preparation of serial dilutions as appropriate, which were then analyzed by HPLC.
# [2] = Preliminary pharmacokinetic studies (background); assay type: in vivo, SD rats; settings: for bioavailability: rat, plasma, oral administration, SD rats
# Excerpt: This can be explained by the excessively low solubility of the salt.
# [3] = Pharmacokinetic study, single oral dose in SD rats (LC-MS/MS of plasma); assay type: in vivo
# Experimental: SIPI-409 hydrochloride and SIPI-409 phosphate were administrated peros (PO), and were studied on in vivo pharmacokinetic parameters and bioavailability in SD rats. Concentrations of SIPI-409 hydrochloride and SIPI-409 phosphate in plasma were measured at intervals using Liquid Chromatography-Mass Spectrometry-Mass Spectrometry assay.
# The obtained plasma concentration data were processed using the pharmacokinetic processing software WinNonlin 5.2 to calculate the relevant pharmacokinetic parameters according to non-compartmental model.
# [4] = Hygroscopicity investigation (dynamic vapor sorption); assay type: physicochemical; settings: dynamic vapor sorption analyzer
# Excerpt: Hygroscopicity was further investigated by placing the phosphate, nicotinate, glycolate, oxalate, orotate, benzenesulfonate and sulfate of SIPI-409 in a dynamic vapor sorption (DVS) analyzer.
# [5] = Pharmacokinetics after intravenous administration in SD rats; assay type: in vivo; settings: α-crystalline form, compared with SIPI-409 hydrochloride
# [6] = Humidity stability investigation (92.5% RH, XRPD); assay type: physicochemical; settings: 92.5% RH (saturated KNO3), XRPD on day 0, 5, 10, 20 and 30
# Experimental: The phosphate, nicotinate, glycolate, oxalate, orotate, benzenesulfonate and sulfate of SIPI-409 were kept in a 92.5% RH (saturated KNO3) atomosphere. XRPD measurements were carried out on samples taken out on day 0, 5, 10, 20 and 30.
# [7] = Light stability investigation (light incubator, XRPD); assay type: physicochemical
# Experimental: The phosphate, nicotinate, glycolate, oxalate, orotate, benzenesulfonate and sulfate of SIPI-409 were placed in a light incubator. XRPD measurements were carried out on samples taken out on day 0, 5, 10, 20 and 30.
# [8] = Temperature stability investigation (60° C. oven, XRPD); assay type: physicochemical; settings: oven at 60° C., XRPD on day 0, 5, 10, 20 and 30
# Experimental: Phosphate, nicotinate, glycolate, oxalate, orotate, benzenesulfonate and sulfate of SIPI-409 were placed in an oven at 60° C. XRPD measurements were carried out on samples taken out on day 0, 5, 10, 20 and 30.
# [9] = PO 10 mg/kg (based on SIPI-409), single dose, 10 mg/kg
# [10] = XRPD on day 0, 5, 10, 20 and 30
Compound,Solubility in water [1],Solubility in water compared to SIPI-409 and SIPI-409 hydrochloride [1],DVS Max Hygroscopicity [4],Stability 92.5% RH [6],"Stability Light [7, 10]",Stability 60° C. [8],other results
"COc1cc2c(cc1OCc1ccccc1)C(Cc1cccc(NS(C)(=O)=O)c1)NCC2 (stereo not shown) [SIPI-409 Fumarate, 1-(3-methanesulfonamidobenzyl)-6-methoxy,7-benzyloxy-1,2,3,4-tetrahydroisoquinoline]",120 µg/mL,–,–,–,–,–,–
"COc1cc2c(cc1OCc1ccccc1)C(Cc1cccc(NS(C)(=O)=O)c1)NCC2 (stereo not shown) [SIPI-409 Succinate, 1-(3-methanesulfonamidobenzyl)-6-methoxy,7-benzyloxy-1,2,3,4-tetrahydroisoquinoline]",160 µg/mL,–,–,–,–,–,–
CC(C)NCC(O)c1ccc(NS(C)(=O)=O)cc1 (stereo not shown) [Sotalol],–,–,–,–,–,–,bioavailability [2]: 70%
"COc1cc2c(cc1OCc1ccccc1)C(Cc1cccc(NS(C)(=O)=O)c1)NCC2 (stereo not shown) [SIPI-409 Phosphate, 1-(3-methanesulfonamidobenzyl)-6-methoxy,7-benzyloxy-1,2,3,4-tetrahydroisoquinoline]",9690 µg/mL,significantly increased solubility in water,–,–,–,–,"AUC(0-t) [3, 9]: 1366.89 ng·h/mL; AUC(0-∞) [3, 9]: 1437.93 ng·h/mL; F (bioavailability) [3, 9]: 79% and 79.33%; half-life ([3]; SD, rat, plasma, po, 10 mg/kg, PO 10 mg/kg (based on SIPI-409), single dose): 2.66 h; Cmax ([3]; SD, rat, plasma, po, 10 mg/kg, PO 10 mg/kg (based on SIPI-409), single dose, read-out: Cmax): 376 ng/mL; MRT inf ([3]; SD, rat, plasma, po, 10 mg/kg, PO 10 mg/kg (based on SIPI-409), single dose, read-out: MRT(0-∞)): 4.23 h; Increase of bioavailability compared to SIPI-409 hydrochloride ([3]; oral administration): 329%; Tmax ([3]; rat, plasma, PO 10 mg/kg (based on SIPI-409), single dose, read-out: Tmax): 0.33 h; DVS Max Hygroscopicity ([4]; listed as SIPI-409 phosphate): 0.7%; DVS Max Hygroscopicity ([4]; listed as phosphate): 0.7%; Pharmacokinetic parameters after intravenous administration [5]: substantially comparable to SIPI-409 hydrochloride; Stability 92.5% RH ([6]; listed as SIPI-409 phosphate): satisfactory stabilities; Stability 92.5% RH ([6]; listed as phosphate): Stable; Stability Light ([7]; XRPD on day 0, 5, 10, 20 and 30, listed as SIPI-409 phosphate): satisfactory stabilities; Stability Light ([7]; XRPD on day 0, 5, 10, 20 and 30, listed as phosphate): Stable; Stability 60° C. ([8]; listed as SIPI-409 phosphate): satisfactory stabilities; Stability 60° C. ([8]; listed as phosphate): Stable"
"COc1cc2c(cc1OCc1ccccc1)C(Cc1cccc(NS(C)(=O)=O)c1)NCC2 (racemic) [SIPI-409 Malate, 1-(3-methanesulfonamidobenzyl)-6-methoxy,7-benzyloxy-1,2,3,4-tetrahydroisoquinoline]",–,–,–,–,–,–,"solubility at 12 h ([1]; water, 30 °C, water, read-out: Solubility): 650 µM; solubility at 12 h ([1]; water, 30 °C, water, read-out: Solubility in water): 380 µg/mL"
"COc1cc2c(cc1OCc1ccccc1)C(Cc1cccc(NS(C)(=O)=O)c1)NCC2 (stereo not shown) [SIPI-409 Oxalate, 1-(3-methanesulfonamidobenzyl)-6-methoxy,7-benzyloxy-1,2,3,4-tetrahydroisoquinoline]",3520 µg/mL,significantly increased solubility in water,9.5%,Hygroscopic,Stable,Stable,–
"COc1cc2c(cc1OCc1ccccc1)C(Cc1cccc(NS(C)(=O)=O)c1)NCC2 (stereo not shown) [SIPI-409 Orotate, 1-(3-methanesulfonamidobenzyl)-6-methoxy,7-benzyloxy-1,2,3,4-tetrahydroisoquinoline]",1930 µg/mL,significantly increased solubility in water,1.1%,Stable,Stable,Stable,–
"COc1cc2c(cc1OCc1ccccc1)C(Cc1cccc(NS(C)(=O)=O)c1)NCC2 (stereo not shown) [SIPI-409 Nicotinate, 1-(3-methanesulfonamidobenzyl)-6-methoxy,7-benzyloxy-1,2,3,4-tetrahydroisoquinoline]",4260 µg/mL,significantly increased solubility in water,4.5%,Hygroscopic,Stable,less stable against heat and degraded since day 5; also recorded: Instable,–
"COc1cc2c(cc1OCc1ccccc1)C(Cc1cccc(NS(C)(=O)=O)c1)NCC2 (stereo not shown) [SIPI-409 Sulfate, 1-(3-methanesulfonamidobenzyl)-6-methoxy,7-benzyloxy-1,2,3,4-tetrahydroisoquinoline]",5760 µg/mL,significantly increased solubility in water,5.2%,Hygroscopic,Stable,Stable,–
"COc1cc2c(cc1OCc1ccccc1)C(Cc1cccc(NS(C)(=O)=O)c1)NCC2 (stereo not shown) [SIPI-409 Tartarate, 1-(3-methanesulfonamidobenzyl)-6-methoxy,7-benzyloxy-1,2,3,4-tetrahydroisoquinoline]",220 µg/mL,–,–,–,–,–,–
"COc1cc2c(cc1OCc1ccccc1)C(Cc1cccc(NS(C)(=O)=O)c1)NCC2 (stereo not shown) [SIPI-409 Benzenesulfonate, 1-(3-methanesulfonamidobenzyl)-6-methoxy,7-benzyloxy-1,2,3,4-tetrahydroisoquinoline]",–,–,4.5%,Hygroscopic,Stable,Stable,solubility at 12 h ([1]; read-out: Solubility): 3210 µM; solubility at 12 h ([1]; read-out: Solubility in water): 1960 µg/mL
"COc1cc2c(cc1OCc1ccccc1)C(Cc1cccc(NS(C)(=O)=O)c1)NCC2 (stereo not shown) [SIPI-409 Ethionate, 1-(3-methanesulfonamidobenzyl)-6-methoxy,7-benzyloxy-1,2,3,4-tetrahydroisoquinoline]",440 µg/mL,–,–,–,–,–,–
"COc1cc2c(cc1OCc1ccccc1)C(Cc1cccc(NS(C)(=O)=O)c1)NCC2 (stereo not shown) [SIPI-409 Hydrobromate, 1-(3-methanesulfonamidobenzyl)-6-methoxy,7-benzyloxy-1,2,3,4-tetrahydroisoquinoline]",440 µg/mL,–,–,–,–,–,–
"COc1cc2c(cc1OCc1ccccc1)C(Cc1cccc(NS(C)(=O)=O)c1)NCC2 (stereo not shown) [SIPI-409 Glycolate, 1-(3-methanesulfonamidobenzyl)-6-methoxy,7-benzyloxy-1,2,3,4-tetrahydroisoquinoline]",3210 µg/mL,significantly increased solubility in water,0.8%,Stable,Stable,Stable,–
"COc1cc2c(cc1OCc1ccccc1)C(Cc1cccc(NS(C)(=O)=O)c1)NCC2 (stereo not shown) [SIPI-409 Hydrochloride, 1-(3-methanesulfonamidobenzyl)-6-methoxy,7-benzyloxy-1,2,3,4-tetrahydroisoquinoline, reference compound]",510 µg/mL,–,–,–,–,–,"Tmax ([3]; PO 10 mg/kg (based on SIPI-409), single dose): 0.33 h; AUC(0-t) [3, 9]: 482.88 ng·h/mL; AUC(0-∞) [3, 9]: 503.82 ng·h/mL; Cmax [3, 9]: 191.96 ng/mL; F (bioavailability) [3, 9]: 24.63%; t1/2 [3, 9]: 1.8 h; t1/2 of injection ([2]; injection, compared with Sotalol): close to that of Sotalol; bioavailability [2]: 24%"
"COc1cc2c(cc1OCc1ccccc1)C(Cc1cccc(NS(C)(=O)=O)c1)NCC2 (stereo not shown) [SIPI-409, 1-(3-methanesulfonamidobenzyl)-6-methoxy,7-benzyloxy-1,2,3,4-tetrahydroisoquinoline, reference compound]",70 µg/mL,–,–,–,–,–,–
